Test results: patent US20120289524A1, “PYRROLO [3,2-E] [1,2,4] TRIAZOLO [1,5-A] PYRIMIDINES DERIVATIVES AS INHIBITORS OF MICROGLIA ACTIVATION” (Senexis Limited, priority 2009, published 2012)
Read-outs that look alike come from different tables or passages of the source.

How the values were obtained:
[1] = Pharmacokinetic data; details: in vivo; for bioavailability: oral
[2] = test system: Mouse BALB/c monocyte macrophages, J774.2; experiment: Inhibition of β-amyloid induced activation: TNF-alpha release (ELISA / Meso Scale Discovery); format: cell-based; details: J774.2 cells, 20 μM Aβ(1-42), 50 U/ml Interferon gamma, 24 hours, read-out: IC50 (μM) TNF-α release
Protocol: (§1) 1. Inhibition of β-amyloid Induced Activation.
(§2) Mouse BALB/c monocyte macrophages, J774.2, {ECACC 85011428} were grown and sub-cultured in cell media (DMEM containing 10% FBS, 1% L-glutamine and 1% penicillin/streptomycin). The J774 cells were plated at 100,000 cells/well in 50 μl cell media on 96 well plates and placed in a 37° C., 5% CO2 incubator overnight prior to experiments.
(§3) The addition of Aβ(1-42) and compounds to the J774 cells was performed using a Biotek precision 2000 liquid handling instrument. 3 μl of compound in DMSO ranging from 8 μM to 6 mM were pipetted into a “daughter plate” containing 294 μl of cell media and mixed thoroughly. 3 μl of Aβ(1-42) in DMSO at 4 mM was then added to the “daughter plate” and mixed thoroughly. 50 μl was then removed from the “daughter plate” and added to the plated J774 cells. The final concentrations in the wells containing 100 μl cell media were 20 μM Aβ(1-42), the compounds ranged from ˜40 nM to 30 μM in 1% DMSO and also in the presence of 50 U/ml Interferon gamma. The plates were incubated for 24 hours in a 37° C., 5% CO2 incubator. After 24 hours incubation the media from the wells were collected and stored at −20° C. until required for testing.
The TNF-alpha levels in the media were tested using a TNF-alpha ELISA (R&D Systems MTA00) or Meso Scale Discovery MS6000 Mouse Proinflammatory-7 kit, using the manufacturers instructions.

[3] = test system: Mouse BALB/c monocyte macrophages, J774.2; experiment: Inhibition of β-amyloid induced activation: nitric oxide release (Griess assay); format: cell-based; details: J774.2 cells, 20 μM Aβ(1-42), 50 U/ml Interferon gamma, 24 hours, read-out: IC50 (μM) NO release
Protocol: as §1, §2, §3
The nitric oxide levels in the media were tested using the Griess assay (Promega G2930) using the manufacturer's instructions.

[4] = iv, read-out: T1/2 i.v. (converted)
[5] = per oral, read-out: T1/2 per oral (converted)

Row | Compound | half-life [1, 4] | bioavailability [1] | half-life [1, 5] | IC50 [2] | IC50 [3]
1 | Cc1nc2ncnn2c2c1CCN2[C@@H](C)c1ccccc1 [reference compound] | 0.22 h | 34.5% | 2.4 h |  | 
2 | Cc1nc2ncnn2c2c1CCN2[C@H](C)c1ccccc1 [Compound 4, reference compound] |  |  |  | > 30 µM | 
3 | Cc1nc2ncnn2c2c1CCN2[C@@H](C)c1ccc(F)cc1 [Compound 1] | 0.87 h | 98.5% | 3.2 h | 0.48 µM | 0.24 µM
